Key:
[1] = Selectivity expressed as the ratio of Ki of alpha-2-adrenoceptor to that of PNMT
[2] = target: T1, Alpha-2A adrenergic receptor (Rattus norvegicus, UniProt P22909); assay: Inhibitory potency against alpha-2-adrenoceptor
T1 sequence (P22909 whole entry): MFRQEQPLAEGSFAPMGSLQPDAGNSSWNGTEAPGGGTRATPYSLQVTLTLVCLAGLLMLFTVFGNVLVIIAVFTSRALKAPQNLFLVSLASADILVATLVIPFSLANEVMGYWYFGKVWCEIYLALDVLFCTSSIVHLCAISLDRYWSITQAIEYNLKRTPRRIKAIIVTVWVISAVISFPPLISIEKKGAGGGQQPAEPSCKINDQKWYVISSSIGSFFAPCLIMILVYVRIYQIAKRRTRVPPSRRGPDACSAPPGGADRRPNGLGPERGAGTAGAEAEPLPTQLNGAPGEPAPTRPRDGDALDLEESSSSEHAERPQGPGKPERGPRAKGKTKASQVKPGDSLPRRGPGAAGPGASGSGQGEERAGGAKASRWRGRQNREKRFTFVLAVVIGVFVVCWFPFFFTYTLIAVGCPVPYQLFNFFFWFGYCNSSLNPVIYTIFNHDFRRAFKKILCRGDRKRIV

[3] = target: T2, Phenylethanolamine N-methyltransferase (Bos taurus, UniProt P10938); assay: Inhibitory potency against bovine phenylethanolamine N-Methyltransferase (PNMT)
T2 sequence (P10938 whole entry): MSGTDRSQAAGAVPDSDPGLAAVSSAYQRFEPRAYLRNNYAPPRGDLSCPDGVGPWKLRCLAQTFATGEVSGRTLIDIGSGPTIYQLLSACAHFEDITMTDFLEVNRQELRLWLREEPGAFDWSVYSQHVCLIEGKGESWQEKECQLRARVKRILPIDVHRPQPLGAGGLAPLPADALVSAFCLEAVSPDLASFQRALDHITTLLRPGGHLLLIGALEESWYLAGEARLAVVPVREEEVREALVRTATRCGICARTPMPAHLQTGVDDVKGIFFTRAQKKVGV

[4] = substrate: NCC1CNCc2ccccc21; assay: Michaelis-Menten constant was determined against bovine phenylethanolamine N-Methyltransferase (PNMT)
[5] = substrate: NC[C@@H](O)c1ccccc1; assay: (§1) Vmax was determined against bovine phenylethanolamine N-Methyltransferase (PNMT)
[6] = substrate: NCC1CNCc2ccccc21; assay: as §1

Molecule: OCC1CNCc2ccccc21 (stereo not drawn)
- Ki [3]: 170000 nM

Molecule: Ic1ccc2c(c1)CNCC2
- Ki [2]: 220 nM

Molecule: Clc1ccc2c(c1Cl)CNCCC2
- Ki [2]: 4500 nM

B1: Phenylethanolamine N-methyltransferase (Bos taurus), P10938 (protein)
chain: T2 sequence (P10938 whole entry)
- Km [4]: 47 µM
- Vmax (nM min-1 mg-1) [5]: 2.2
- Vmax (nM min-1 mg-1) [6]: 3.4
